Source: US6794406B2, “Indole derivatives” (Bayer Aktiengesellschaft, priority 2000, dated 2004)
pEC50: −log10 of the molar value.

The molecules below were run on luciferase gene under the control of a thyroid hormone-regulated promoter (TRE) in HepG2 hepatocarcinoma cell (assay: T3 promoter assay cell test). Details: stably transfected human HepG2 cells; luciferase induction; incubated 48 or 72 hours with costimulator retinolic acid; four replicates.
Type: cell-based
Method: The efficacy of the compounds according to the invention can be tested, for example, in vitro by the T3 promoter assay cell test described below:
The test is carried out using a stably transfected, human HepG2 hepatocarcinoma cell which expresses a luciferase gene under the control of a thyroid hormone-regulated promoter. The vector used for the transfection carries, ahead of the luciferase gene, a minimal thymidine kinase promoter having a thyroid hormone-responsive element (TRE), which consists of two inverted palindromes of 12 Bp each and an 8 Bp spacer.
For the test, the cell cultures are inoculated into 96 well plates in Eagle's Minimal Essential Medium with the following additives: glutamine, tricine [N-(tris(hydroxymethyl)methyl)glycine], sodium pyruvate, non-essential amino acids (L-Ala, L-Asn, L-Asp, L-Pro, L-Ser, L-Glu, Gly), insulin, selenium and transferrin. The cultures are grown for 48 hours at 37° C. and under a 10% CO2 atmosphere. Serial dilutions of test substance or reference compound (T3, T4) and costimulator retinolic acid are then added to the test cultures and these are incubated as beforehand for a further 48 or 72 hours. Each substance concentration is tested in four replicates. For the determination of the luciferase induced by T3 or other substances, the cells are then lysed by addition of a Triton- and luciferin-containing buffer (from Promega) and immediately measured luminometrically. The EC50 values of each compound are calculated.

pEC50	Structure (SMILES)
8.40	CC(C)c1c[nH]c2ccc(Oc3c(C(F)(F)F)cc(CCC(=O)O)cc3C(F)(F)F)cc12 [Example 15, 4-(3-Isopropyl-1H-indol-5-yloxy)-3,5-bis-trifluoromethylphenylpropionic acid]
8.10	Cc1cc(NC(=O)CC(=O)O)cc(Cl)c1Oc1ccc2[nH]cc(C(C)C)c2c1 [Example 6, 3-({3-Chloro-4-[(3-isopropyl-1H-indol-5-yl)oxy]-5-methylphenyl}amino)-3-oxo-propionic acid]
9.30	CC(C)c1c[nH]c2ccc(Oc3c(C(F)(F)F)cc(CC(=O)O)cc3C(F)(F)F)cc12 [Example 11, 4-(3-Isopropyl-1H-indol-5-yloxy)-3,5-bis-trifluoromethylphenylacetic acid]
7.66	Cc1cc(NCC(=O)O)cc(C)c1Oc1ccc2[nH]cc(C(C)C)c2c1 [Example 5, N-{4-[(3-Isopropyl-1H-indol-5-yl)oxy]-3,5-dimethylphenyl}glycine]
7.68	Cc1cc(OCC(=O)O)cc(C)c1Oc1ccc2[nH]cc(C(C)C)c2c1 [Example 16, {4-[(3-Isopropyl-1H-indol-5-yl)oxy]-3,5-dimethylphenoxy}acetic acid]
